Tests used:
[1] = system: submucosal glands of CFTR-/- tracheas; test: Functional measurement of gland secretions in tracheal xenografts; set-up: species or system ferret; conditions: 30 minute stimulation
Experimental: Functional measurement of gland secretions in tracheal xenografts. Rates of mucous secretion from single submucosal glands were determined on excised CFTR^+/+, CFTR^+/−, and CFTR^−/− tracheal xenografts, as previously described in Joo et al. (2001), with modification to optimize xenograft viability. Xenografts were harvested and placed in minimal essential medium (MEM) with antibiotics, and shipped overnight at 4° C. from the University of Iowa to Stanford University. Tracheal xenografts were open along the posterior trachealis muscle, and dissected tracheal segments were mounted mucosal-side-up in a chamber without removing the cartilage at 4° C. […] Digital images of the spherical mucous bubbles under mineral oil were obtained at 5 minute intervals, based on which the secretory rates for individual glands was calculated using ImageJ software (NIH, MD). […] To confirm that differences in glandular secretory rates between CF and non-CF xenografts were not due to differences in gland size, we performed morphometric analysis on the samples analyzed. […] The unit length of the surface airway basal lamina and the glandular area were measured for each section using Metamorph software. […] On average about 75 photomicrographs were evaluated for each xenograft sample (N=5 for non-CF and N=6 for CF).

CFTR-/- kits = test: Oral UDCA therapy of CFTR-/- kits (neonatal clinical care, blood chemistries); type: in vivo, ferret; conditions: Golytely and antibiotics
Experimental: Neonatal clinical care of CFTR^−/− kits. Two treatment protocols were developed to enhance post-natal survival and reduce the risk of intestinal obstruction caused by MI. Both protocols included administering metronidazole (5 mg/kg in 100 uL of dextrose saline, s.c.) 4× daily beginning at the time of birth, and starving the animals for the first 3 hours after birth and then administering a 150-200 μL Golytely® gavage (Braintree Laboratories Inc.) using a fire polished microloader pipette tip (Eppendorf Inc.) (FIG. 27 for example of gavage tube components). The gavage was repeated every 6 hours up to three times, until meconium was passed. […] When CFTR^−/− kits were weaned at 5 weeks of age, they were fed a slurry of Elecare hydrated solid chow (Marshall Farms) 2× daily, mixed with 1 lipase Unit per 10 gram body weight of Viokase-V (the amount of food eaten with each feeding was recorded for these calculations).
Blood chemistries. […] Mammalian Liver Profile rotors from Abaxis were used, and assessed plasma levels of: alkaline phosphatase (AP), alanine aminotransferase (ALT), bile acids (BA), total bilirubin (TBiI), total cholesterol (CHOL), gamma glutamyl transferase (GGT), and blood urea nitrogen (BUN). […]
For these reasons, it was determined whether oral UDCA therapy of CFTR^−/− kits might normalize liver function and improve nutrition. […]

## C[N+](C)(C)CCOC(N)=O [carbachol]
[1]; secretion in response to 1 μM carbachol
  reduction of fluid secretion from submucosal glands, CFTR-/- versus non-CF tracheas: reduced by half

## C=C[C@@]1(C)CC(=O)[C@]2(O)[C@@]3(C)[C@@H](O)CCC(C)(C)[C@@H]3[C@H](O)[C@H](OC(C)=O)[C@@]2(C)O1 [forskolin]
[1]; secretion in response to 3 μM forskolin
  reduction of fluid secretion from submucosal glands, CFTR-/- versus non-CF tracheas: 7.4 fold

## C[C@H](CCC(=O)O)[C@H]1CC[C@H]2[C@@H]3[C@@H](O)C[C@@H]4C[C@H](O)CC[C@]4(C)[C@H]3CC[C@]12C [UDCA, ursodeoxycholic acid]
CFTR-/- kits; 4 of 20 CFTR-/- kits treated with UDCA
  survival of CFTR-/- kits that did not die of MI: 5 to 9 days
CFTR-/- kits; among 20 CFTR-/- kits treated with UDCA
  number of kits that died of MI: 16

From patent US20110054247A1, “METHODS FOR CLONING FERRETS AND TRANSGENIC FERRET MODELS FOR DISEASES” (UNIVERSITY OF IOWA RESEARCH FOUNDATION, priority 2009, published 2011)
